Measured values: publication PMC3141655 (BMC Biochemistry, 2011)
Entries after “also recorded” stand apart in the source; their conditions may differ. Where two headings read alike, the source gives them in different places.

Assays:
[1] = molecular target: T1, StOASS (O-acetylserine sulfhydrylase) (Salmonella typhimurium, UniProt P0A1E3); test: PLP fluorescence titration of ligands with StOASS; format: binding; set-up: His tag (N); made in house; host or cells: E. coli BL21(DE3), pET28a(+); conditions: for change of OASS PLP fluorescence upon addition of ligand: up to ~1 mM ligand
Description: Titrations of ligands with StOASS were examined by monitoring changes in the active site pyridoxal 5'phosphate (PLP) fluorescence of OASS using a Varian spectrofluorometer. The excitation and emission wavelengths for monitoring PLP signal change upon ligand binding were 412 nm and 507 nm respectively. All experiments were done at 23.0 ± 1°C. Slit widths were set to 5 nm for all experiments and PMT voltage was adjusted to get maximum signal for a given protein concentration. Initial readings of both the sample, Fsamp,0 and buffer, Fbuf,0 were taken, with F0 = Fsamp,0-Fbuf,0 defined as the initial fluorescence of the sample. The sample cuvette was then titrated with aliquots of ligands and mixed, equilibrated for 2-5 minutes before measurement. Data points from five such measurements were averaged to obtain Fave,i. The relative fluorescence quenching upon ligand binding is defined as Qobs,i = (F0-Fobs,i)/F0. All measurements were corrected for dilution, and inner filter effects.
Binding of ligands to OASS was analyzed to obtain the equilibrium binding constant, Kobs = [PL]/[P]*[L], using a single or two independent site binding models (eqn 1)(1) [drawing 1]
Where n, number of binding sites, Qobs, observed fluorescence quenching and Qmax, the maximum fluorescence quenching at saturation.

OASS [2] = molecular target: OASS; set-up: method as in PMID 7547955; conditions: earlier study; read-out: Kd, reported value; cited from earlier work
OASS [3] = molecular target: OASS; set-up: method as in PMID 10995767; conditions: from Kext, single-wavelength stopped flow; cited from earlier work
[4] = molecular target: T1, StOASS (O-acetylserine sulfhydrylase)
Description: (§1) Isothermal titration calorimetry (ITC) experiments were performed using a Nano-ITC (TA-Instruments). OASS was dialyzed at 25°C in 20 mM Tris buffer (pH 8.0) and 50 mM NaCl. Buffer solutions were degassed at room temperature prior to use. […] The heat of dilution for each injection was determined using buffer in the cell. Data obtained from the titration of ligands with OASS were analyzed using either a two-sites binding model (eqn 2)(2) [drawing 2]
(§2) Qi^tot is total heat after the i^th injection, V0 is the volume of calorimetric cell, K1 and K2 are the observed equilibrium constants for each site, and ΔH1 and ΔH2 are the corresponding enthalpy changes. Estimates of Kobs and ΔH were obtained by fitting the experimental data to the model and the best-fit parameters were selected based on the lowest Chi-squared values.

[5] = molecular target: HiOASS (O-acetylserine sulfhydrylase) (Haemophilus influenzae, UniProt P45040)
Description: as §1, §2

OASS (StOASS and HiOASS) = format: biochemical; conditions: purified enzymes; read-out: Km,OAS
[6] = 25°C, 20 mM Tris pH 8.0, 50 mM NaCl

T1 sequence (P0A1E3 whole entry): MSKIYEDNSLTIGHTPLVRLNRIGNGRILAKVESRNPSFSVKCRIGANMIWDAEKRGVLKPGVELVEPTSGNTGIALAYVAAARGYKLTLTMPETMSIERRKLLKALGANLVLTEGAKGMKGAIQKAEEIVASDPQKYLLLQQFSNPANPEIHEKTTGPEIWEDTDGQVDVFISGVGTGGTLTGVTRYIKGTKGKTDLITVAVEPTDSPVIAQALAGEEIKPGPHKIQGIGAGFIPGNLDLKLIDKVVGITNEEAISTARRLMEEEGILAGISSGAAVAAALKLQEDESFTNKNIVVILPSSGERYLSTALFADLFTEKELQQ
Chain of HiOASS (O-acetylserine sulfhydrylase) (P45040 whole entry): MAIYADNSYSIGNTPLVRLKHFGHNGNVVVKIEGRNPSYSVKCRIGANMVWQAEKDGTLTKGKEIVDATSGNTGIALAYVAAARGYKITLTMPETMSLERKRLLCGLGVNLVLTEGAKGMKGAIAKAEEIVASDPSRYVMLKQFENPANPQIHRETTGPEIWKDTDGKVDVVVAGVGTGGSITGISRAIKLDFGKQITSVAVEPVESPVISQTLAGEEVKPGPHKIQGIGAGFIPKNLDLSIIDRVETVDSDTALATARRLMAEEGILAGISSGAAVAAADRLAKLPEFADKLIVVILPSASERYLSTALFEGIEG

Structure (SMILES) | change of OASS PLP fluorescence upon addition of ligand ([1]; pH 8.0 (20 mM Tris, 20 mM NaCl)) | change of OASS PLP fluorescence upon addition of ligand ([1]; pH 9.5 (20 mM Tris, 20 mM NaCl)) | Kd ([1]; pH 9.5, 20 mM Tris, 20 mM NaCl, read-out: Kd (equilibrium dissociation constant)) | Kd (OASS [2]) | Kd (OASS [3]) | Kd [4] | contribution of enthalpy to total binding free energy ([4]; 25°C) | apparent binding constant [4, 6] | ΔG [4, 6] | Kd [5] | contribution of enthalpy to total binding free energy ([5]; 25°C) | binding constant [5, 6] | enthalpy value [5, 6] | ΔG [5, 6] | Km (OASS (StOASS and HiOASS))
N[C@@H](CO)C(=O)O [L-serine] | does not change OASS fluorescence; also recorded: does not change PLP | leads to changes in the OASS fluorescence; also recorded: increases the PLP fluorescence | ~3.7 mM | 4.2 mM |  |  |  |  |  |  |  |  |  |  | 
CC(=O)OC[C@H](N)C(=O)O [OAS, O-acetylserine] |  |  |  |  | ~5.6 mM | 0.56 mM | less than 3% | ~ 1.8 ± 0.6 × 10^3 M^-1 | -17.6 kJ/M | ~0.77 mM | less than 3% | ~ 1.3 ± 0.4 × 10^3 M^-1 | 0.45 ± 0.3 kJ/M | -16.9 kJ/M | 900 to 1400 µM
